{"source": "patent US12208181B2", "about": "“Medication infusion components and systems” (MEDTRONIC MINIMED, INC., priority 2017, dated 2025)", "key": {"diabetic porcine model [1]": {"tested_on": "diabetic porcine model", "experiment": "Insulin infusion site-loss study in diabetic porcine model (extended wear infusion set)", "assay_type": "in vivo, pig", "conditions": "for Effect on site-loss compared with control: diabetic pigs, agent given with insulin (Humalog) infusion, control without agent; for No site loss for: Sof-Set", "method": "The objectives of this study include duplicating the site-loss phenomena observed in previous studies using a diabetic porcine model. Additionally, various infusion set configurations are evaluated for reducing site-loss and extending infusion set wear. Further, site-loss is mitigated using a response-inhibiting agent and/or infusion pump to increase reliability of wear for 3 days and extend infusion set wear beyond 3 days.\nThe objectives of this study include: duplicating the site-loss phenomena observed in previous studies using the diabetic porcine model; using the established diabetic porcine model to evaluate the effects of various infusion set designs on infusion site-loss; and testing if site-loss can be mitigated by direct pump infusing of immunosuppressant/anti-inflammatory drugs, and/or by modifying infusion set by drug coating.\nThis study is designed so that each set (inserted under anesthesia) is to be worn for 1 week unless there was set failure/dislodge. Glucose is monitored by a blood glucose meter and Enlite™ sensor. The criteria for determining site loss is that blood glucose is greater than 350 mg/dl and fails to decrease following an insulin dose correction. During biopsy pumps are removed but the cannula is maintained in-situ. Site skin is examined for edema/erythema (swell/redness) (see FIG. 8)."}, "[2]": {"tested_on": "normal and diabetic Yucatan pigs", "experiment": "PK/PD study: blood glucose response to Humalog", "assay_type": "in vivo", "text": "(§1) The goal of studying insulin infusion site-loss using a diabetic porcine model is to establish the methods and animal model necessary to reproduce the phenomenon of site-loss in Continuous Subcutaneous Insulin Infusion (CSII). Methodologies are established for evaluating infusion sites in healthy and diabetic pigs, including device placement and animal management, glucose monitoring, insulin detection, pharmacokinetics, site harvesting, and pathological evaluation. The host response to implanted functional devices is assessed in healthy and diabetic pigs. Parameters that are believed to impact site-loss are varied until site-loss is observed."}, "diabetic Yucatan pigs": {"tested_on": "diabetic Yucatan pigs", "experiment": "Site-loss evaluation during CSII (Example 1)", "assay_type": "in vivo", "text": "as §1\nSite-loss was evaluated using a criteria of a prolonged high blood glucose level (greater than 350 mg/dl) as well as being ineffectively controlled by increasing insulin basal/bolus rate. Site-loss observed was pig dependent, sometimes site-dependent. […] The other two pigs (#341425 and #341426) had no site-loss in 7 days if a proper site was located. In general, the pigs with observed site-loss were less responsive to a Humalog™ dose. Histologically, the predominant tissue response was inflammation and, with longer infusion, fibrosis. Inflammation scores trended to be of higher grade in diabetic pigs compared to normal pigs, with a larger inflammation area around the catheter tip. […]"}, "diabetic pig": {"tested_on": "diabetic pig", "experiment": "Histopathology of infusion sites (inflammation at catheter tip and body)", "assay_type": "in vivo", "text": "FIG. 2A is a series of histologic evaluations at the catheter tip showing the inflammatory response (score), and size of the area with tissue reaction. “*” indicates the catheter location and “F” indicates normal fat. […] FIG. 2B is a series of graphs illustrating the inflammation at the catheter tip for diabetic and non-diabetic pigs. Localized inflammation loosely correlated with site-loss.\nFIG. 2C is a series of graphs illustrating the predominate inflammation cells at the catheter tip and catheter body (qualitative). To isolate the main inflammation contributors, a catheter, a catheter infused with insulin (Humalog™), and a catheter infused with placebo were placed on a diabetic pig at the same time.\nFIG. 2D is a series of graphs illustrating the predominate inflammation cells at the catheter tip and catheter body of an insulin injection port (i-Port™). To isolate the main inflammation contributors, a catheter, a catheter infused with insulin, and a catheter infused with placebo were placed on a diabetic pig. Compared to continuous infusion, the giant cells are missing in the i-Port™ study. […] As observed by the pathologist, the pigs may have developed a hypersensitivity to the Humalog™ and such a reaction would contribute to the inflammation seen (the degree that hypersensitivity is influencing the inflammation is unclear but it could be one of the main drivers)."}, "diabetic porcine model [3]": {"tested_on": "diabetic porcine model", "experiment": "Local toxicity observation in diabetic porcine model", "conditions": "prefilled heparin/insulin, Sof-Set; heparin 100-800 U/mL insulin (U100)"}, "[4]": {"conditions": "diabetic pigs, compared to catheter and placebo"}}, "note": "Entries after “also recorded” stand apart in the source; their conditions may differ."}
{"compound": "C[C@H]1C[C@H]2[C@@H]3CCC4=CC(=O)C=C[C@]4(C)[C@@]3(F)[C@@H](O)C[C@]2(C)[C@@]1(O)C(=O)COP(=O)([O-])[O-].[Na+].[Na+]", "note": "[BSP, Betamethasone Sodium phosphate]", "values": [{"measurement": "Effect on site-loss compared with control", "setting": "diabetic porcine model [1]", "result": "performing significantly worse than the control"}]}
{"compound": "C[C@@H]1C[C@H]2[C@@H]3CCC4=CC(=O)C=C[C@]4(C)[C@@]3(F)[C@@H](O)C[C@]2(C)[C@@]1(O)C(=O)COP(=O)(O)O", "note": "[DXP, Dexamethasone Phosphate]", "values": [{"measurement": "Effect on site-loss compared with control", "setting": "diabetic porcine model [1]", "result": "performing significantly worse than the control"}]}
{"compound": "CO[C@H]1C[C@@H]2CC[C@@H](C)[C@@](O)(O2)C(=O)C(=O)N2CCCC[C@H]2C(=O)O[C@H]([C@H](C)C[C@@H]2CC[C@@H](O)[C@H](OC)C2)CC(=O)[C@H](C)/C=C(\\C)[C@@H](O)[C@@H](OC)C(=O)[C@H](C)C[C@H](C)/C=C/C=C/C=C/1C", "note": "[rapamycin]", "values": [{"measurement": "Effect on Site-Loss: site-loss after / duration of wear", "setting": "diabetic porcine model [1]; 1 pig using Sof-Set, rapamycin later found degraded in solution after use", "result": 5, "unit": "days"}, {"measurement": "Signs of improvement: recovery after", "setting": "diabetic porcine model [1]; rapamycin dosed with Humalog", "result": "around 6 days"}, {"measurement": "No site loss for", "setting": "diabetic porcine model [1]; rapamycin spiked in insulin, around 0.6 μg/day", "result": "more than 6 days"}]}
{"compound": "Insulin lispro [Humalog]", "values": [{"measurement": "Blood glucose lowering", "setting": "[2]", "result": "effectively lower blood glucose level"}, {"measurement": "Site-loss observed at", "setting": "diabetic Yucatan pigs; pigs #341423 and #341424, blood glucose >350 mg/dl criterion", "result": "approximately 3 days"}, {"measurement": "No site-loss in", "setting": "diabetic Yucatan pigs; pigs #341425 and #341426, if a proper site was located", "result": "> 7", "unit": "days"}, {"measurement": "Order of evaluated inflammation scores", "setting": "diabetic pig; catheter, catheter infused with insulin (Humalog), catheter infused with placebo on one diabetic pig", "result": "insulin≥placebo≥catheter; also recorded: insulin≥placebo≥cannula"}, {"measurement": "Localized inflammation", "setting": "diabetic pig; [4]", "result": "associated with increased localized inflammation"}, {"measurement": "Localized tissue fibrosis", "setting": "diabetic pig; [4]", "result": "main contributor to localized tissue fibrosis"}]}
{"compound": "dextran", "values": [{"measurement": "Infusion site active", "setting": "diabetic porcine model [1]; Sof-Set with dextran dosed insulin (FIG. 22)", "result": "up to 6 days"}, {"measurement": "Effect on site-loss compared with control", "setting": "diabetic porcine model [1]", "result": "performing significantly better than the control"}, {"measurement": "Efficacy in extending infusion set wear / site-loss mitigation (in words)", "setting": "diabetic porcine model [1]; diabetic porcine model", "result": "efficacy of dextran in extending infusion set wear"}]}
{"compound": "heparin", "values": [{"measurement": "Infusion site active", "setting": "diabetic porcine model [1]; Sof-Set with heparin dosed insulin (FIGS. 17, 18)", "result": "up to 13 days"}, {"measurement": "Site-loss (glucose monitoring)", "setting": "diabetic porcine model [1]; U100 Humalog with heparin sodium, actual 3.55 mg/mL or 685 U/mL, continuous infusion, pigs IM3 and IM4", "result": "> 6", "unit": "days"}, {"measurement": "Effect on site-loss compared with control", "setting": "diabetic porcine model [1]", "result": "performing significantly better than the control"}, {"measurement": "No site loss for", "setting": "diabetic porcine model [1]; prefilled heparin/insulin, heparin 100-800 U/mL insulin (U100)", "result": "greater than 13 days"}, {"measurement": "Local toxicity", "setting": "diabetic porcine model [3]", "result": "No local toxicity was observed"}]}
